Residues, ends and D or L forms follow the SMILES beside them.
Tests used:
[1] = tested on: Src and P38 in B16 melanoma cells; experiment: Western blotting, B16 cells; type: cell-based; details: B16 mouse melanoma cells, Western blot
Procedure: (§1) Western blotting was performed following a standard protocol as described previously (6,8,18,29). Antibodies used in this study were purchased from Cell Signaling Technology (Boston, MA): p-Src (Y416), total Src, matrix metalloproteinase-2 (MMP-2) and matrix metaloproteinase-9 (MMP-9), focal adhesion kinase (FAK), p IKKα/β (S176/180), total IKK, p P38 (T180/Y182) and total P38. MDA-9/Syntenin antibody was obtained from Abnova Inc. (Taiwan). β-actin (Sigma-Aldrich, St. Louis, MO) was used as an endogenous loading control. Fibronectin was purchased from EMD Millipore (Billerica, MA).

[2] = tested on: Src, P38 and IκB phosphorylation in A-375 and C8161.9 cells; experiment: Western blotting of signaling proteins, human melanoma cells; type: cell-based; details: 24 hours
Procedure: FIG. 4B is a Western blot of C8161.9 and A-375 cells treated with indicated doses of IVMT-Rx-3 for 24 hours. Cell lysates were subjected to Western blotting analysis to determine the expression levels of various signaling proteins (as shown) associated with MDA-9/Syntenin: Src interactions. Western blotting densitometry and relative intensity of protein bands were calculated using Image J software. The values are provided.
as §1

IL-6, IL-10, IL-16 [3] = experiment: IL-6, IL-10, IL-16 mRNA by semiquantitative RT-PCR, human melanoma cells; type: cell-based; details: human melanoma cells (A-375, C8161.9)
Procedure: (§2) FIG. 14 is a series of histograms showing the IL-6, IL-10, and IL-16 mRNA fold change in RNA lysates prepared from A-375, C8161.9, and B16 cells treated with IVMT-Rx-3 at varying concentrations as indicated.
(§3) Total cellular RNA was extracted using an RNAeasy kit (Qiagen, Germany) as described previously (8,9). All Taqman probes used in this study were obtained from Applied Biosystems (Applied Biosystems, Foster City, CA). Real time PCR was performed using an ABI ViiA7 fast real-time PCR system (Applied Biosystems, Foster City, CA).

MMP-2 and MMP-9 = MMP-2 and MMP-9 mRNA by qPCR, B16 cells; type: cell-based; details: B16 mouse melanoma cells
Procedure: FIG. 13C is a series of histograms showing the MMP-2 and MMP-9 mRNA fold change in the cells treated as described in FIG. 13A, as determined by qPCR. *: Statistical significance (p<0.05).
as §3

MDA-9/Syntenin [4] = target: T1, MDA-9/Syntenin (Homo sapiens, UniProt O00560); experiment: NMR titration / ITC binding and HSQC mapping
T1 sequence (O00560 1-298): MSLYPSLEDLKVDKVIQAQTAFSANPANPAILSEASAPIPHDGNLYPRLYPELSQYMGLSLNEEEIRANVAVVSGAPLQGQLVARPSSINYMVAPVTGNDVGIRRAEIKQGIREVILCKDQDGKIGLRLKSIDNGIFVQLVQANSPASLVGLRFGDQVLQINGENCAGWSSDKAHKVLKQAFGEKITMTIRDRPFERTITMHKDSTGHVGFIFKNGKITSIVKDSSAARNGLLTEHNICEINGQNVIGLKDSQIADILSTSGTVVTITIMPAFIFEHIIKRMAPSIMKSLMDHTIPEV

[5] = tested on: human melanoma cells (established and early passage patient-derived); experiment: Proliferation / colony formation of human melanoma cells; type: cell-based; details: 10 to 50 μM
Excerpt: FIG. 2C is a series of images showing colony formation assays of established human melanoma and patient-derived early passage human melanoma cells treated with IVMT-Rx-3.
FIG. 2D is a series of histograms showing the number of colonies/plate in the colony formation assays described in FIG. 2C. NS: Not statistically significant; Statistically significant p<0.05.
FIG. 2E is a series of histograms showing the number of colonies/plate in colony formation assays of patient-derived early passage human melanoma cells treated with IVMT-Rx-3. NS: Not statistically significant; Statistically significant p<0.05.
The effect of IVMT-Rx-3 on primary normal human epidermal melanocyte cell growth and survival was determined after short term (24 hr., growth assays) (FIG. 2A) and long-term exposure (3-week, clonal assays) (FIG. 2B).

MDA-9/Syntenin [6] = target: T1, MDA-9/Syntenin; experiment: Microscale thermophoresis (MST) binding affinity; details: His-tagged recombinant MDA-9/Syntenin 175 nM, PBS-T pH 7.4, 25 °C, ± S.E., read-out: dissociation constant (KD)
Procedure: FIG. 1C is a binding curve of IVMT-Rx-3 bound to MDA-9/Syntenin. The binding constant Ka was measured from the binding curve generated through a microscale thermophoresis (MST) assay.
Binding affinity was measured using microscale thermophoresis (MST) experiments performed on a Monolith NT. Automated instrument (NanoTemper Technologies GmbH, Munich, Germany). His-tagged MDA-9/Syntenin was first labeled with RED-tris-NTA (λEX-650 nm, λEM=670 nm; Cat #MO-LO18) according to the manufacturer's protocol. Briefly, 700 nM MDA-9 in 100 mM phosphate-buffered saline, pH 7.4, containing 0.05% Tween 20 (PBS-T) was added to an equal volume of 100 nM RED-tris-NTA in PBS-T and the mixture was incubated at room temperature for 30 min, centrifuged at 15,000 g for 10 min at 4 °C, and the supernatant containing the labeled protein was transferred to a new tube for use in affinity measurements. […] After a 10-min incubation, the samples were loaded into premium capillary chips and thermophoretic measurements were performed (25 °C, 27% excitation power, medium MST power, 20 s laser on) to follow changes in normalized fluorescence (Fnorm) at different IVMT-Rx-3 concentrations (FIG. 1C). These changes were analyzed using the standard hyperbolic binding isotherm (SigmaPlot) to obtain the affinity of IVMT-Rx-3 for MDA-9/Syntenin. […]

MDA-9/Syntenin [7] = experiment: MDA-9/Syntenin protein expression; type: cell-based
T cells = experiment: T cell infiltration into the tumor environment; type: in vivo; details: targeting MDA-9/Syntenin
IL-6, IL-10, IL-16 [8] = experiment: IL-6, IL-10, IL-16 mRNA by semiquantitative RT-PCR, murine melanoma cells; type: cell-based, mouse; details: murine melanoma cells (B16)
Procedure: as §2, §3

[9] = target: PDZ tandem protein Harmonin (Homo sapiens, UniProt Q9Y6N9); experiment: Binding to other PDZ domains: Harmonin; details: 36% identity to PDZ2 and 31% to PDZ1 of MDA-9/Syntenin
Sequence of PDZ tandem protein Harmonin (Q9Y6N9 whole entry, the tested form may be a part): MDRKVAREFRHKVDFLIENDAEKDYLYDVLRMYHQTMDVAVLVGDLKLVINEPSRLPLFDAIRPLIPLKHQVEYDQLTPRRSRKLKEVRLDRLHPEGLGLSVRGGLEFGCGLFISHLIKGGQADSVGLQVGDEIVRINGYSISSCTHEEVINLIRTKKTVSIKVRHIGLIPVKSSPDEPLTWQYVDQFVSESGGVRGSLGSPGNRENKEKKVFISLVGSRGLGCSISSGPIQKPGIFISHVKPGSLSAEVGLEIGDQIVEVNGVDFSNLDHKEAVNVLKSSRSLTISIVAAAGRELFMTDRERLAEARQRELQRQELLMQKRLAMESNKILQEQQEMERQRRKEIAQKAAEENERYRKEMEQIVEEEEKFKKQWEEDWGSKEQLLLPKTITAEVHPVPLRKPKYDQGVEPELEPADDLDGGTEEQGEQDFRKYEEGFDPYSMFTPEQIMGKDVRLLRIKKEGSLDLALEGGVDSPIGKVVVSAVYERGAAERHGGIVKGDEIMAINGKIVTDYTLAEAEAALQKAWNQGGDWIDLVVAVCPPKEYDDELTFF

Kd (MDA-9/Syntenin [4]; ITC, fitted to a single binding event, NMR titration provides similar values, read-out: overall dissociation constant of the complex, Kd): < 1 µM | induction of chemical shifts (NMR mapping) (MDA-9/Syntenin [4]; NMR mapping studies): induces chemical shifts in both domains | perturbation of Met201 (PDZ2) and Met188 (PDZ1) (MDA-9/Syntenin [4]; [13C,1H]-HSQC, 20 μM 13C-Met-labeled MDA-9/Syntenin, 40 μM compound): both clearly perturbed | Kd (MDA-9/Syntenin [6]): 63 µM | binding to Harmonin [9]: did not bind appreciably
SMILES: Cc1cc(NC(=O)c2nc3[nH]c4c(c(=O)n3n2)CCC4)c(C)cc1NC(=O)CCOCCC(=O)N[C@H](C(=O)N[C@@H](CC(N)=O)C(=O)N[C@@H](CCC(=O)O)C(=O)N[C@@H](Cc1ccc(O)cc1)C(=O)N[C@@H](Cc1ccc(O)cc1)C(=O)N[C@H](C(=O)O)C(C)C)[C@@H](C)O [IVMT-Rx-3] (HELM PEPTIDE1{[Cc1cc(NC(=O)c2nc3[nH]c4c(c(=O)n3n2)CCC4)c(C)cc1NC(=O)CCOCCC(=O)[*:2]].T.N.E.Y.Y.V}$$$$V2.0)
Src and downstream P38 [1]: downregulation of Src and downstream P38 | Src activation (Src phosphorylation) [2]: significantly reduced Src activation | levels of p-P38, p-Src, and pIκB [2]: Reduced levels | IL-6, IL-10, IL-16 expression (IL-6, IL-10, IL-16 [3]): Down-regulation | expression of MMP-2 and MMP-9 (MMP-2 and MMP-9): lower expression of MMP-2 and MMP-9 | inhibition of proliferation or long-term survival [5]: did not inhibit proliferation or long-term survival | effect on MDA-9/Syntenin protein expression (MDA-9/Syntenin [7]): does not affect MDA-9/Syntenin protein expression | T cell infiltration into the tumor environment (T cells): causes T cell infiltration into the tumor environment | IL-6, IL-10, IL-16 expression (IL-6, IL-10, IL-16 [8]): Down-regulation

Reference: US20260345798A1, “COMPOUNDS AND METHODS OF USE THEREOF” (Virginia Commonwealth University, priority 2023, published 2026)
